# From ChEMBL document CHEMBL1201862, “PubChem BioAssay data set” (2004)
#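 Cells were grown in 96-well plates and exposed to each compound for 48 hours at five concentrations; endpoints were interpolated linearly between bracketing concentrations, or set to the highest concentration if not reached. Abbreviation: GI50, concentration required for 50% inhibition of growth.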 Activity calls are given as the source filed them. No stated cut-off is given here; in the data, active = GI50 up to about 1.1 µM and inactive = higher.
# Tests used:
# Assay in all cases: DTP human tumour cell line panel, 48 h
# OVCAR-8 = tested on: OVCAR-8
# NCI-H23 = tested on: NCI-H23
# SNB-19 = tested on: SNB-19
# SN12C = tested on: SN12C
# RXF 393 = tested on: RXF 393
# MDA-MB-435 = tested on: MDA-MB-435
# 786-0 = tested on: 786-0
# SF-539 = tested on: SF-539
# PC-3 = tested on: PC-3
# MDA-N = tested on: MDA-N
# HCC 2998 = tested on: HCC 2998
# IGROV-1 = tested on: IGROV-1
# DU-145 = tested on: DU-145
# SR = tested on: SR
# UACC-62 = tested on: UACC-62
# KM12 = tested on: KM12
# ACHN = tested on: ACHN
# CCRF-CEM = tested on: CCRF-CEM
# A498 = tested on: A498
# CAKI-1 = tested on: CAKI-1
SMILES,GI50 (OVCAR-8),GI50 (NCI-H23),GI50 (SNB-19),GI50 (SN12C),GI50 (RXF 393),GI50 (MDA-MB-435),GI50 (786-0),GI50 (SF-539),GI50 (PC-3),GI50 (MDA-N),GI50 (HCC 2998),GI50 (IGROV-1),GI50 (DU-145),GI50 (SR),GI50 (UACC-62),GI50 (KM12),GI50 (ACHN),GI50 (CCRF-CEM),GI50 (A498),GI50 (CAKI-1)
O=[N+]([O-])c1c(F)c(F)c2c(c1F)N(CCCCCl)c1ccccc1S2,3.16 µM (inactive),7.91 µM (inactive),7.69 µM (inactive),7.5 µM (inactive),13.8 µM (inactive),7.71 µM (inactive),9.02 µM (inactive),17.2 µM (inactive),6.05 µM (inactive),15 µM (inactive),2.86 µM (inactive),2.27 µM (inactive),13.2 µM (inactive),1.89 µM (inactive),13.9 µM (inactive),10.5 µM (inactive),16.5 µM (inactive),2.38 µM (inactive),8.81 µM (inactive),6.98 µM (inactive)
O=C(O)C(F)(OC(F)(F)C(F)(OC(F)(F)C(F)(F)C(F)(F)F)C(F)(F)F)C(F)(F)F (stereo not given),> 100 µM (inactive),> 100 µM (inactive),> 100 µM (inactive),78.5 µM (inactive),> 100 µM (inactive),> 100 µM (inactive),> 100 µM (inactive),> 100 µM (inactive),59.7 µM (inactive),> 100 µM (inactive),> 100 µM (inactive),> 100 µM (inactive),> 100 µM (inactive),> 100 µM (inactive),> 100 µM (inactive),> 100 µM (inactive),> 100 µM (inactive),> 100 µM (inactive),> 100 µM (inactive),> 100 µM (inactive)
CC1=C(O)C(=O)c2ccccc2C1=O,> 100 µM (inactive),12.3 µM (inactive),> 100 µM (inactive),> 100 µM (inactive),34.8 µM (inactive),52.6 µM (inactive),71.9 µM (inactive),> 100 µM (inactive),82.6 µM (inactive),46.7 µM (inactive),> 100 µM (inactive),80.4 µM (inactive),64.9 µM (inactive),88.5 µM (inactive),39.3 µM (inactive),23 µM (inactive),58.7 µM (inactive),> 100 µM (inactive),> 100 µM (inactive),> 100 µM (inactive)
Cn1c(=O)c2c(nc3[nH]c(=O)c(Br)cn32)n(C)c1=O,> 100 µM (inactive),> 100 µM (inactive),> 100 µM (inactive),> 100 µM (inactive),> 100 µM (inactive),> 100 µM (inactive),> 100 µM (inactive),> 100 µM (inactive),> 100 µM (inactive),> 100 µM (inactive),> 100 µM (inactive),> 100 µM (inactive),> 100 µM (inactive),> 100 µM (inactive),> 100 µM (inactive),> 100 µM (inactive),> 100 µM (inactive),> 100 µM (inactive),> 100 µM (inactive),> 100 µM (inactive)
CC(=O)N1C(=O)/C(=C\C(=O)c2ccc([N+](=O)[O-])cc2)c2ccccc21,47.5 µM (inactive),28.9 µM (inactive),43.2 µM (inactive),16.8 µM (inactive),29.1 µM (inactive),25.6 µM (inactive),15.5 µM (inactive),14.4 µM (inactive),21.8 µM (inactive),18.8 µM (inactive),19.3 µM (inactive),21.4 µM (inactive),67 µM (inactive),3.61 µM (inactive),18.4 µM (inactive),19.6 µM (inactive),15.3 µM (inactive),3.94 µM (inactive),> 100 µM (inactive),22.5 µM (inactive)
CC(C)N1CCCOC(c2ccc([N+](=O)[O-])cc2)O1 (stereo not given),> 100 µM (inactive),> 100 µM (inactive),> 10 µM (inactive),> 100 µM (inactive),> 100 µM (inactive),> 100 µM (inactive),> 100 µM (inactive),> 100 µM (inactive),> 100 µM (inactive),> 100 µM (inactive),> 100 µM (inactive),> 100 µM (inactive),> 100 µM (inactive),> 100 µM (inactive),> 100 µM (inactive),> 100 µM (inactive),> 100 µM (inactive),> 100 µM (inactive),> 100 µM (inactive),> 100 µM (inactive)
N=C(N)NS(=O)(=O)c1ccc(NCc2cccc3c(=O)c4ccc(Cl)cc4oc23)cc1,7.52 µM (inactive),8.55 µM (inactive),5.97 µM (inactive),> 9.27 µM (inactive),3.08 µM (inactive),5.04 µM (inactive),9.1 µM (inactive),6.11 µM (inactive),1.4 µM (inactive),5.27 µM (inactive),> 15.3 µM (inactive),3.43 µM (inactive),5.57 µM (inactive),2.08 µM (inactive),6.19 µM (inactive),3.25 µM (inactive),7.6 µM (inactive),1.82 µM (inactive),> 9.02 µM (inactive),8.53 µM (inactive)
COc1ccc(/C=C2/C(=O)C(c3ccccc3)N(c3ccccc3)C2=O)cc1OC (stereo not given),> 10 µM (inactive),> 10 µM (inactive),> 10 µM (inactive),> 10 µM (inactive),> 10 µM (inactive),> 10 µM (inactive),> 10 µM (inactive),> 10 µM (inactive),> 10 µM (inactive),> 10 µM (inactive),> 10 µM (inactive),0.975 µM (active),> 10 µM (inactive),> 10 µM (inactive),> 10 µM (inactive),> 10 µM (inactive),> 10 µM (inactive),> 10 µM (inactive),1.41 µM (inactive),> 10 µM (inactive)
CC(=O)[C@@]1(O)CC[C@H]2[C@@H]3C[C@H](C)C4=CC(=O)CC[C@]4(C)[C@H]3[C@@H](O)C[C@@]21C,> 100 µM (inactive),> 100 µM (inactive),> 100 µM (inactive),> 100 µM (inactive),> 100 µM (inactive),> 100 µM (inactive),> 100 µM (inactive),> 100 µM (inactive),> 100 µM (inactive),> 100 µM (inactive),> 100 µM (inactive),> 100 µM (inactive),> 100 µM (inactive),> 100 µM (inactive),> 100 µM (inactive),> 100 µM (inactive),> 100 µM (inactive),14.1 µM (inactive),> 100 µM (inactive),> 100 µM (inactive)
CC1(C)OCC(C2OC3OC(C)(C)OC3C2N)O1 (stereo not given),> 100 µM (inactive),> 100 µM (inactive),> 100 µM (inactive),> 100 µM (inactive),> 100 µM (inactive),> 100 µM (inactive),> 100 µM (inactive),> 100 µM (inactive),> 100 µM (inactive),> 100 µM (inactive),> 100 µM (inactive),> 100 µM (inactive),> 100 µM (inactive),> 100 µM (inactive),> 100 µM (inactive),> 100 µM (inactive),> 100 µM (inactive),> 100 µM (inactive),> 100 µM (inactive),> 100 µM (inactive)
